Measurements taken from US10151975B2, “Lithographic printing plate precursor” (AGFA NV, priority 2013, dated 2018).

Experiment: Solubility of the compounds: visual homogeneity of mixture in aqueous buffer pH 7
Assay type: physicochemical
Parameters: key to Visual homogeneity After 1 hour / Visual homogeneity After 1 day / Visual homogeneity After 4 days / Visual homogeneity After 1 week / Visual homogeneity After 2 weeks: −: heterogeneous mixture; +: homogeneous mixture
Conditions: for Time after which the mixture becomes homogeneous: 100 mg compound in 5 ml aqueous buffer pH = 7; for Visual homogeneity After 1 week / Visual homogeneity After 2 weeks / Visual homogeneity After 1 hour / Visual homogeneity After 1 day / Visual homogeneity After 4 days: 100 mg compound in 5 ml aqueous buffer pH = 7, room temperature
Experimental: Solubility of the Compounds
100 mg of the inventive and comparative compounds were added to 5 ml of a CertiPUR pH=7 buffer solution available from Merck. The mixture was gently stirred at room temperature and the homogeneity of the mixture was evaluated visually after different times: […]

Row | SMILES | Time after which the mixture becomes homogeneous | Visual homogeneity After 1 week | Visual homogeneity After 2 weeks | Visual homogeneity After 1 hour | Visual homogeneity After 1 day | Visual homogeneity After 4 days
1 | C=C(C)C(=O)OCCOC(=O)C(=O)OCCOC(=O)C(=C)C [Compound M-1] | 1 week | + | + | − | − | −
2 | C=CC(=O)OCCCCOC(=C)C(=O)OCCCCOC(=O)C=C [Compound M-2] | 1 week | + | + | − | − | −
3 | C=CC(=O)NCCOC(=O)C(=O)OCCNC(=O)C=C [Compound M-3] | 1 days | + | + | − | + | +
4 | C=C(C)C(=O)OCCCNC(=O)C(=O)NCCCOC(=O)C(=C)C [Compound M-4] |  | − | − | − | − | −
5 | C=C(C)C(=O)OCCOC(=O)NCCC(C)CC(C)(C)CNC(=O)OCCOC(=O)C(=C)C (centres unmarked) [Compound M-5] |  | − | − | − | − | −
6 | C=CC(=O)OCCn1c(=O)n(CCOC(=O)C=C)c(=O)n(CCOC(=O)C=C)c1=O [Compound M-6] |  | − | − | − | − | −
7 | C=CC(=O)OCCOCCOc1ccc(C(C)(C)c2ccc(OCCOC(=O)C=C)cc2)cc1 [Compound M-7] |  | − | − | − | − | −
